# Assay: in vitro
# Settings: human, hela cells, % viability
row,Structure (SMILES),"viability at 28.5 h, 10 µM [%]"
1,CCc1nc2ccc(C(=O)N(C)CCN(C)C)cn2c1N(C)Cc1nccs1 [CBK145474],96.8
2,CCOC(=O)N(C)c1c(CC)nc2ccc(C(=O)Nc3cc(-c4ccccc4)ccc3OC)cn12 [CBK145478],89.6
3,Cc1nc2ccc(C(=O)N3CCCCC3)cn2c1N(C)C=O [CBK145480],100
4,Cc1nc2ccc(C(=O)N(C)Cc3ccco3)cn2c1N(C)C=O [CBK145482],99
5,CCc1nc2ccc(C(=O)Nc3ccc(NC(C)=O)cc3)cn2c1N(C)CC [CBK145483],94.5
6,CCc1nc2ccc(C(=O)NC3CCN(Cc4ccccc4)CC3)cn2c1N(C)CC [CBK145488],88.3
7,CCc1nc2ccc(C(=O)NCc3cccs3)cn2c1N(C)CC [CBK145492],108
8,CCc1nc2ccc(C(=O)NCCOc3ccc(OC)cc3)cn2c1N(C)CC [CBK145504],91.9
9,CCc1nc2ccc(C(=O)N3CCN(S(=O)(=O)CC)CC3)cn2c1N(C)CC [CBK145520],85.1
10,CCc1nc2ccc(C(=O)Nc3ccc4c(c3)OCC(=O)N4)cn2c1N(C)CC [CBK145521],96.8
11,CCc1nc2ccc(C(=O)N3CCN(c4ccccc4)CC3)cn2c1N(C)Cc1ccc(OC)cc1 [CBK145584],85.4
12,CCc1nc2ccc(C(=O)Nc3ccc(Cl)c(Cl)c3)cn2c1N(C)Cc1ccc(OC)cc1 [CBK145585],93.6
13,CCc1nc2ccc(C(=O)NCCNC(C)=O)cn2c1N(C)Cc1ccc(NC(C)=O)cc1 [CBK145612],87.4
14,CCc1nc2ccc(C(=O)N3CCN(C(=O)c4ccco4)CC3)cn2c1N(C)Cc1ccncc1 [CBK145635],94.5
15,CCc1nc2ccc(C(=O)NCCc3c[nH]c4ccccc34)cn2c1N(C)Cc1ccncc1 [CBK145636],99.7
16,CCCCN(C(C)=O)c1c(CC)nc2ccc(C(=O)N(C)CCN(C)C)cn12 [CBK145739],91.7
17,CCCCN(C(C)=O)c1c(CC)nc2ccc(C(=O)NCc3ccccc3OC)cn12 [CBK145761],96
18,CCc1nc2ccc(C(=O)N(C)CCN(C)C)cn2c1N(C)C(=O)C1CCCCC1 [CBK145771],93.8
19,CCc1nc2ccc(C(=O)N3CCNC(=O)C3)cn2c1N(C)C(=O)COc1ccccc1 [CBK145871],107
20,CCc1nc2ccc(C(=O)NC3=NN(c4ccccc4)C(=O)C3)cn2c1N(C)C(=O)COc1ccccc1 [CBK145873],91.3
21,CCc1nc2ccc(C(=O)Nc3ccc(OC)c(OC)c3)cn2c1N(C)C(=O)Nc1ccccc1OC [CBK145875],117

row,Structure (SMILES),"viability at 28.5 h, 10 µM [%]"
1,CCc1nc2ccc(C(=O)N3CCN(c4ccccc4)CC3)cn2c1N(C)C(=O)Nc1ccccc1OC [CBK145886],96.2
2,CCCCNC(=O)c1ccc2nc(C)c(N(C)CC3CCCCC3)n2c1 [CBK145913],99.6
3,CCc1nc2ccc(C(=O)N(C)Cc3ccccc3)cn2c1N(C=O)CC [CBK145936],102
4,CCN(CC)c1c(C)nc2ccc(C(=O)N(C)CCN(C)C)cn12 [CBK145950],90.6
5,CCN(CC)c1c(C)nc2ccc(C(=O)NC3CCN(C)CC3)cn12 [CBK145965],98.7
6,CCc1nc2ccc(C(=O)N(C)CCN(C)C)cn2c1N(CC)CCOC [CBK146018],94.2
7,CCc1nc2ccc(C(=O)N3CCCCC3)cn2c1N(C)CCC(C)C [CBK146065],96.3
8,Cc1nc2ccc(C(=O)N(C)CCN(C)C)cn2c1N(C)Cc1cccs1 [CBK146083],102
9,COCCN(Cc1ccc(OC)cc1)c1c(C)nc2ccc(C(=O)Nc3ccc(NC(C)=O)cc3)cn12 [CBK146111],99.3
10,CCS(=O)(=O)N1CCN(C(=O)c2ccc3nc(C)c(N(CCOC)Cc4ccc(OC)cc4)n3c2)CC1 [CBK146153],98.2
11,CCc1nc2ccc(C(=O)N3CCCC(C(N)=O)C3)cn2c1N(CC)CCN(C)C (stereo not shown) [CBK146185],98.8
12,CCc1nc2ccc(C(=O)N3CCN(C)CC3)cn2c1N(C)Cc1nccn1C [CBK146299],115
13,CCc1nc2ccc(C(=O)N(C)C(C)C)cn2c1N(C)CCN1CCOCC1 [CBK146436],95.2
14,CCOC(=O)N(C)c1c(CC)nc2ccc(C(=O)N(C)CCCN(C)C)cn12 [CBK146478],107
15,CCC(CC)C(=O)N(C)c1c(C)nc2ccc(C(=O)N(C)CCN(C)C)cn12 [CBK146491],94.8
16,CCC(CC)C(=O)N(C)c1c(C)nc2ccc(C(=O)NCCc3c[nH]c4ccccc34)cn12 [CBK146495],85.5
17,CCC(CC)C(=O)N(C)c1c(C)nc2ccc(C(=O)NCc3ccc(OC)cc3)cn12 [CBK146501],97.9
18,CCC(CC)C(=O)N(C)c1c(C)nc2ccc(C(=O)N3CCN(S(=O)(=O)CC)CC3)cn12 [CBK146524],92
19,CCC(CC)C(=O)N(C)c1c(C)nc2ccc(C(=O)Nc3cccc(NS(C)(=O)=O)c3)cn12 [CBK146526],105
20,Cc1nc2ccc(C(=O)N(C)CCN(C)C)cn2c1N(C)C(=O)c1cccs1 [CBK146528],120
21,Cc1nc2ccc(C(=O)NC3CCN(Cc4ccccc4)CC3)cn2c1N(C)C(=O)c1cccs1 [CBK146529],99.9

row,Structure (SMILES),"viability at 28.5 h, 10 µM [%]"
1,CCc1nc2ccc(C(=O)NCCN3CCCC3)cn2c1N(C)C(=O)c1ccncc1 [CBK146655],90.5
2,CCc1nc2ccc(C(=O)N3CCN(C(C)=O)CC3)cn2c1N(C)Cc1ccc(Cl)cc1 [CBK146718],105
3,Cc1nc2ccc(C(=O)NC3=NN(c4ccccc4)C(=O)C3)cn2c1N(C)C(=O)CCc1ccccc1 [CBK146817],89.8
4,CCc1nc2ccc(C(=O)N3CCCCC3)cn2c1N(CC)Cc1ccc2c(c1)OCCO2 [CBK146903],100
5,CC(=O)c1ccc(NC(=O)N(C)c2c(C)nc3ccc(C(=O)N4CCN(C(=O)c5ccco5)CC4)cn23)cc1 [CBK146930],92.8
6,CCc1nc2ccc(C(=O)Nc3ccc(C(N)=O)cc3)cn2c1N(CC)Cc1cccc(Br)c1 [CBK146960],92.9
7,CCc1nc2ccc(C(=O)N(C)CCN(C)C)cn2c1N(CC)Cc1cccc(Br)c1 [CBK146962],93.1
8,CCc1nc2ccc(C(=O)Nc3ccc(NC(C)=O)cc3)cn2c1N(CC)Cc1ccc(OC)c(OC)c1 [CBK146994],97.8
9,CCc1nc2ccc(C(=O)Nc3ccc(OC)c(OC)c3)cn2c1N(CC)C(=O)NCCc1ccccc1 [CBK147035],97.1
10,CCCCC(=O)N(C)c1c(C)nc2ccc(C(=O)NCc3cccs3)cn12 [CBK147073],103
11,CC(=O)Nc1ccc(CN(C)c2c(C)nc3ccc(C(=O)N(C)CCN(C)C)cn23)cc1 [CBK147107],109
12,Cc1nc2c(OCCN3C(=O)c4ccccc4C3=O)cccn2c1N(C)C(=O)C1CCCCC1 [CBK147157],95
13,CCCCN(C)c1c(C)nc2c(OCC(=O)c3ccc(F)cc3)cccn12 [CBK147172],93.1
14,CCCCN(C)c1c(C)nc2c(OCC3CCCCO3)cccn12 (stereo not shown) [CBK147180],103
15,CCCCN(C)c1c(C)nc2c(OCc3ccc(S(=O)(=O)N(C)C)cc3)cccn12 [CBK147189],96.2
16,CCCCN(C)c1c(C)nc2c(Oc3ncccn3)cccn12 [CBK147190],90.9
17,CCCCN(C)c1c(C)nc2c(Oc3nc4ccccc4s3)cccn12 [CBK147192],93.4
18,Cc1nc2c(OCCOc3ccc(F)cc3)cccn2c1N(C)C(=O)CCC1CCCC1 [CBK147198],103
19,Cc1ccccc1COc1cccn2c(N(C)CC3CCCO3)c(C)nc12 (stereo not shown) [CBK147231],115
20,Cc1nc2c(OCCOc3ccccc3)cccn2c1N(C)CC1CC1 [CBK147272],96.8
21,Cc1nc2c(OCc3ccc(F)c(F)c3)cccn2c1N(C)CC1CC1 [CBK147276],91.9

row,Structure (SMILES),"viability at 28.5 h, 10 µM [%]"
1,CCN(C)c1c(C)nc2c(OCc3cccc(Cl)c3)cccn12 [CBK147310],100
2,CCN(C)c1c(C)nc2c(OCC(=O)N(C)C)cccn12 [CBK147316],107
3,Cc1nc2c(OCc3ccc(C#N)cc3)cccn2c1N(C)Cc1cccs1 [CBK147336],92
4,CC(=O)Nc1ccc(CN(C)c2c(C)nc3c(OCC4CCCCC4)cccn23)cc1 [CBK147379],93.5
5,CC(=O)Nc1ccc(CN(C)c2c(C)nc3c(OCc4ccc(C(F)(F)F)cc4)cccn23)cc1 [CBK147380],94.5
6,COc1ccc(CN(C)c2c(C)nc3c(OCCCN(C)S(C)(=O)=O)cccn23)cc1 [CBK147468],90
7,COc1ccc(CN(C)c2c(C)nc3c(OCC(=O)N4CCOCC4)cccn23)cc1 [CBK147469],102
8,CCc1nc2c(OCc3ccc(Cl)cc3)cccn2c1N(C=O)CC(=O)N(C)C [CBK147518],96.4
9,CCCCN(C=O)c1c(CC)nc2c(OCCOc3ccc(F)cc3)cccn12 [CBK147631],92.7
10,CCCCN(C=O)c1c(CC)nc2c(OCc3ccccc3C)cccn12 [CBK147639],92.2
11,CCc1nc2c(OCCC3CCCCC3)cccn2c1N(C)C(=O)CC(C)C [CBK147671],94.8
12,CCc1nc2c(OCCOC)cccn2c1N(C)C(=O)c1ccccc1F [CBK147722],91.3
13,CCc1nc2c(OCc3ccccc3OC)cccn2c1N(C)C(=O)C(C)C [CBK147763],97
14,CCCCC(=O)N(C)c1c(CC)nc2c(OCCn3cccc3)cccn12 [CBK147785],102
15,CCNC(=O)N(C)c1c(CC)nc2c(OCC3CCCCC3)cccn12 [CBK147795],108
16,CCc1nc2c(Oc3nc4ccccc4s3)cccn2c1N(C=O)Cc1ccc(OC)cc1 [CBK147819],107
17,CCc1nc2c(OCCOC)cccn2c1N(CCOC)C(C)=O [CBK147845],97.4
18,CCc1nc2c(OCc3ccc(S(C)(=O)=O)cc3)cccn2c1N(CCOC)C(C)=O [CBK147846],87.4
19,O=C(NC(c1ccc(-c2ccccc2)cc1)c1cnccn1)C1CCN(CCCN2C(=O)C3CCCCC3C2=O)CC1 (stereo not shown) [CBK147856],97.3

# Source: article PMC12040169 (PLOS Biology, 2025)
